Results taken from publication PMC12493201, “A biosynthetic pathway for ornithine lipid formation dependent on a GH3 (Gretchen Hagen 3)-like enzyme in planctomycetes” (The Journal of Biological Chemistry, 2025).

Biological target: T1, OlsH (Sinac_1599) (Singulisphaera acidiphila, UniProt L0DAW6)
T1 sequence (L0DAW6 1-526): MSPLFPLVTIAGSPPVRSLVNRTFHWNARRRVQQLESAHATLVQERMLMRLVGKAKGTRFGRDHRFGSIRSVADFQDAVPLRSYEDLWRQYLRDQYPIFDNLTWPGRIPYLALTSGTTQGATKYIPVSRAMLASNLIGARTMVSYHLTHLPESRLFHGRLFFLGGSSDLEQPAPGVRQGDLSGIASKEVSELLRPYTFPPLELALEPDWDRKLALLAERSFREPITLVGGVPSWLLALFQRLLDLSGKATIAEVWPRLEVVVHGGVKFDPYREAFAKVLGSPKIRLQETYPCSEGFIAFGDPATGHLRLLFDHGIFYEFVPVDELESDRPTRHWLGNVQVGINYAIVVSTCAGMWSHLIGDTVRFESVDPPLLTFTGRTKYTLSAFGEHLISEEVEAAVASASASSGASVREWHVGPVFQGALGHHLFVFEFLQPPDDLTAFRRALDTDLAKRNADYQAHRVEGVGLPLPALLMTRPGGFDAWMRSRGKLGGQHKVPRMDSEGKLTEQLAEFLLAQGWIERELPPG
Assay: […] N-acyl ornithine formation, TLC / PhosphorImager; empty-vector extract inactive
Type: biochemical
Settings: ATP, Mg2+, Tris pH 7.9, 30 °C, cell-free E. coli extract

Row | Compound | 14C N-acyl ornithine formation, TLC / PhosphorImager; empty-vector extract inact (palmitic acid, labelled compound) | 14C N-acyl ornithine formation, TLC / PhosphorImager; empty-vector extract inact ([14C]-ornithine, fatty acid as Triton X-100 micelles)
1 | NCCC[C@H](N)C(=O)O [ornithine] | Adding all compounds resulted in a solid acyl-ornithine signal | –
2 | CCCCCCCCCCCCCCCC(=O)O [palmitic acid] | – | Strong acyl ornithine signals were detected with the three non-hydroxylated fatty acids
